We go through 5 compounds from patent US20220218851A1, “COMPOUNDS AND METHODS FOR IMAGING IMMUNE ACTIVITY” (Board of Regents, The University of Texas System, priority 2019, published 2022).

For data set [1], the system named is neutrophil-like human HL-60 cells. Briefly: [^18F]4FN cellular retention in PMA-activated neutrophil-like HL-60 cells. It is filed as cell-based. Particulars: pre-incubation with inhibitor prior to PMA. The method, then: HL-60 cells were first differentiated to yield “neutrophil-like” cells. Then, in parallel, cell aliquots from each batch were imaged with L-012 (to confirm ROS production by bioluminescence) and incubated with 6.2 kBq of [^18F]4FN. To induce ROS, all cells were incubated with PMA. […] Data were quantified as a ratio of the cell-associated radioactive counts per milligram protein over concentration of radiotracer in the extracellular space, and then normalized to vehicle.

Data set [2] relates to PMA-induced ear inflammation. Briefly: PMA ear inflammation model, PET/CT imaging. The data set is classed as in vivo, mouse. The following applies: for detection of PMA-inflamed ear versus vehicle ear by PET: about 1 hr post tracer injection ([^18F]FDG from 45 min). The method, then:
3 Months old Balb/c female mice or 20-26 week-old female C57B16 mice (Taconic) were topically treated with PMA (Sigma) (400 μM) in ethanol on the right ear or vehicle, ethanol, on the left ear. 24 hrs later, inflammation of the right ear was validated by visual inspection for redness and swelling. Mice were then injected IV (unless noted) with [^18F]FN or [^18F]FNS or [^18F]FNG derivatives as noted and PET/CT images were acquired at times indicated, typically 1 hr post injection. Mice, n=3 for [^18F]FN and [^18F]FNS, were euthanized at 1.5 hr post injection for blood metabolism analysis. In one experiment, adult (3 month old Balb/c) were imaged on an in vivo imaging system (IVIS Spectrum, PE; 5 min, binning 16, 25 cm FOV) 10 min post injection of Luminol (200 mg/kg) IP to confirm production of reactive oxygen species. For [^18F]FDG PET imaging experiments, mice were fasted for >4 hr prior to FDG injection. Mice were injected with [^18F]FDG IV under light anesthesia and then allowed to awake, move and drink water at libitum. Cages were kept on a cage warmer during uptake and washout periods. Mice were imaged starting at 45 min post-injection with a 10 min PET/CT scan (Albira, Bruker). In all cases, PET images were acquired for 10 min using a 15 cm FOV; CT images were acquired for fusion using a 7 cm FOV also centered on the object of interest. Image data were decay corrected to injection time (Albira, Bruker) and expressed as % ID/cc or SUV as indicated (PMOD, PMOD Technologies). Actual injected dose was calculated based on measuring the pre- and post-injection activity in the syringe with a dose calibrator on a per mouse basis (Capintec), and mice were individually weighed to calculate individual standardized uptake values. In the context of an acute inflammation model, [^18F]4FN was tested in a pilot experiment in Balb/c mice topically treated with PMA on the right ear or vehicle on the left ear. The treated ear turned red, visually confirming the inflammation site. Mice were injected IP with [^18F]4FN and PET/CT scans were taken at 11 min, 1 h, 2 h and 3 h post injection of tracer (FIG. 5). […] After 1 h, the inflamed ear was clearly visualized (>2% ID/cc). […] Production of reactive oxygen species in the inflamed ear was confirmed by BLI with luminol after PET imaging (FIG. 5) (Gross et al., 2009). This indicated the dependence of the signal on induced inflammation.

In the next data set the test system is 4T1 tumor. The experiment in a line: 4T1 tumor PET imaging. The data set is classed as in vivo, mouse. Particulars: immunocompetent Balb/C mice, 1 h after injection. As to the method:
4T1 murine breast cancer cells were cultured and passaged per ATCC guidelines and utilized prior to 20 passages. 10,000 4T1 cells were injected subcutaneously into the right flank of 6-8 week old Balb/c mice. Tumors grew for 3 weeks prior to imaging. In all cases, PET images were acquired for 10 min using a 15 cm FOV; CT images were acquired for fusion using a 7 cm FOV also centered on the object of interest. Image data were decay corrected to injection time (Albira, Bruker) and expressed as % ID/cc or SUV as indicated (PMOD, PMOD Technologies). Actual injected dose was calculated based on measuring the pre- and post-injection activity in the syringe with a dose calibrator on a per mouse basis (Capintec), and mice were individually weighed to calculate individual standardized uptake values. [^18F]4FNS PET has been employed to visualize 4T1 tumors in immunocompetent Balb/C mice. 4T1 is a reliable murine model for triple negative breast cancer and, in its early proliferative stage, is believed to be heavily infiltrated by immune cells, particularly active neutrophils and myeloid derived suppressor cells (MDSCs; Wang et al., 2017 and Bunt et al., 2006).

Structures are written as SMILES. Entries after “also recorded” stand apart in the source; their conditions may differ. Structures can show the parent of a compound that is named as a salt.

For `c1ccc2c(c1)[I+]c1ccccc1-2` [DPI, reference compound], the “blocking of PMA-induced [^18F]4FN retention” value in data set [1] is recorded as “blocked”.
Take `O=C(O)C1OC(Oc2ccc([18F])c3ccccc23)C(O)C(O)C1O` (centres unmarked) [[^18F]4FNG, [^18F]4-fluoronaphthalen-1-yl glucuronide]: the “detection of PMA-inflamed ear versus vehicle ear by PET” value in data set [2] (IV injection) is on record as “small differentiation”. Also, the “clearance relative to other tracers” value in data set [2] (PMA model) was “cleared much faster”. The “retention in PMA-inflamed ear relative to other tracers” value in data set [2] (PMA model, 1 h post injection) was “retained much less than [^18F]FN and [^18F]FNS”.
For `O=S(=O)(O)Oc1ccc([18F])c2ccccc12` [[^18F]4FNS, [^18F]4-fluoronaphthalen-1-yl sulfate], in data set [2] (IV injection), the “detection of PMA-inflamed ear versus vehicle ear by PET” value was “readily detected; also recorded: clearly visible; also recorded: readily detectable”. Also, in data set [2] (IV injection, n=3), the clearance entry is recorded as “Rapid primarily renal clearance”, the “defluorination (bone)” value is recorded as “minor defluorination” and the hepatobiliary excretion result is listed as “minor hepatobiliary excretion”. For the same compound, the “visualization of 4T1 tumor by PET” value with 4T1 tumor is listed as “clearly visible; also recorded: easily distinguishable”.
As for `OC[C@H]1OC(O)[C@H]([18F])[C@@H](O)[C@@H]1O` (some centres unmarked) [[^18F]FDG, reference compound], the “detection of PMA-inflamed ear versus vehicle ear by PET” value in data set [2] (IV injection) is on record as “no differentiation between the ears; also recorded: no FDG image asymmetry was observed”.
On to `O=C([O-])CC(O)(CC(=O)[O-])C(=O)[O-].[68Ga+3]` [^68Ga-citrate, reference compound], for which the “difference between inflamed and vehicle ears (perfusion control)” value in data set [2] (same animals, same time points) is listed as “No difference between the ears”.
